According to patent publication US8101576B2, “Compounds and their effects on feeding behaviour” (priority 2006, dated 2012):
Square brackets hold non-standard residues; d marks the D form. Ends that are not written are not given here.

Test: Inhibition of food intake, subcutaneous injection to fasted mice
Format: in vivo, C57BL/6 mice
Settings: 20 nmoles/kg
Procedure: Animals: All animal procedures were approved by the British Home Office Animals (Scientific Procedures) Act 1986 (Project License number 70/5516). Male C57BL/6 mice and male Wistar rats were maintained in individual cages under controlled temperature (21-23° C.) with ad libitum access to standard chow (RMI diet, SDS Ltd, Witham, Essex, UK) and to water. The light cycle was 12 hours light and 12 hours dark with ‘dawn’ at 07:00, lights full on at 07:30, ‘dusk’ at 19:00 with lights off at 19:30. These times were fixed in the animal facility, All animals were handled almost daily for on average nine days prior to the first study. During the acclimatization period, mice received two saline injections at least two days apart in order to further acclimatize to the procedure on the study days. It was found in rats that minimising the number of injections provided an optimal response, and so acclimatization injections were not used.
Study protocol: C57BL/6 mice (20-35 g) were injected with the peptide under investigation following a 20-hour fast. Wistar rats were injected following a 24-hour fast. Typically 6 to 10 rodents were used per experimental group. Injections were typically administered at 9:00. A pre-weighed quantity of chow was presented immediately after injection. The remaining food was measured at regular time intervals (e.g. 1, 2, 3, 4, 6, 8, 24, 32 and 48 hours following injection) and food intake calculated.
The feeding effect of the following analogue of oxyntomodulin was investigated: PEPTIDE NO: 355 [SEQ ID NO:355]. The analogue was administered at a dose of […] by subcutaneous injection to a group of fasted mice. A further group was administered saline (control). Mean cumulative food intake over the course of 4 hours is shown in comparison to saline in FIG. 40. […] The food intake suppression continues for the whole 4 hour period; that is to say that the food intake over the 4 hour period is lower than in the saline control.
The feeding effect of the following analogue of oxyntomodulin was investigated: PEPTIDE NO: 130 [SEQ ID NO: 130]. […]

Substance: D-His Ala Gln Gly Thr Phe Thr Ser Asp Tyr Ser Lys Tyr Leu Glu Gln Glu Leu Val Lys Tyr Phe Ile Gln Trp Leu Lys Asn Ala Gly Pro Ser Lys Asn Asn Ile Ala ([dH]AQGTFTSDYSKYLEQELVKYFIQWLKNAGPSKNNIA) [PEPTIDE NO: 130]
- food intake suppression continues for (24 hours observed): ≥ 24 h
- Mean cumulative food intake in comparison to saline control (over 24 hours): potent and long acting suppression of food intake
- food intake in comparison to control group treated with native oxyntomodulin (over 24 hours): lower than in the control group treated with native oxyntomodulin
